Measured values from PubChem BioAssay (NCI).
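In this assay, cells in 96-well plates receive the compound at five concentrations for 48 hours. Endpoints are linearly interpolated between the surrounding concentrations. The concentration for 50% growth inhibition is given as GI50. TGI marks complete inhibition of growth.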

How the values were obtained:
Test in all cases: inhibition of tumour cell growth, NCI panel, 48 h
[1] = tested on: 786-0 renal
[2] = tested on: A498 renal
[3] = tested on: A549 NSCLC
[4] = tested on: ACHN renal
[5] = tested on: BT-549 breast
[6] = tested on: CAKI-1 renal
[7] = tested on: COLO 205 colon
[8] = tested on: DU-145 prostate
[9] = tested on: EKVX NSCLC
[10] = tested on: HCC-2998 colon
[11] = tested on: HCT-116 colon
[12] = tested on: HCT-15 colon
[13] = tested on: HL-60(TB) leukemia
[14] = tested on: HOP-62 NSCLC
[15] = tested on: HOP-92 NSCLC
[16] = tested on: HS 578T breast
[17] = tested on: HT29 colon
[18] = tested on: IGROV1 ovarian
[19] = tested on: KM12 colon
[20] = tested on: LOX IMVI melanoma
[21] = tested on: MALME-3M melanoma
[22] = tested on: MCF7 breast
[23] = tested on: MDA-MB-231 breast
[24] = tested on: MDA-MB-435
[25] = tested on: NCI-H226 lung
[26] = tested on: NCI-H23 lung
[27] = tested on: NCI-H460 lung
[28] = tested on: NCI-H522 lung
[29] = tested on: OVCAR-3 ovarian
[30] = tested on: OVCAR-4 ovarian
[31] = tested on: OVCAR-5 ovarian
[32] = tested on: OVCAR-8 ovarian
[33] = tested on: PC-3 prostate
[34] = tested on: RPMI-8226 leukemia
[35] = tested on: RXF 393 renal
[36] = tested on: SF-268 CNS
[37] = tested on: SF-295 CNS
[38] = tested on: SF-539 CNS
[39] = tested on: SK-MEL-2 melanoma
[40] = tested on: SK-MEL-28 melanoma
[41] = tested on: SK-MEL-5 melanoma
[42] = tested on: SK-OV-3 ovarian
[43] = tested on: SN12C renal
[44] = tested on: SNB-19 CNS
[45] = tested on: SNB-75 CNS
[46] = tested on: SW-620 colon
[47] = tested on: T-47D breast
[48] = tested on: TK-10 renal
[49] = tested on: U251 CNS
[50] = tested on: UACC-257 melanoma
[51] = tested on: UACC-62 melanoma
[52] = tested on: UO-31 renal

Q: With CCOC(=O)c1c(NC(=O)c2ccc(C(F)(F)F)cc2)sc2c3c(ccc12)OCN(C)C3 as the molecule, how does the GI50 [1] read?
A: 2220 nM

Q: And the TGI [1]?
A: 4920 nM

Q: And the GI50 [2]?
A: 1670 nM

Q: What about the TGI [2] of the same molecule?
A: 3210 nM

Q: What about the GI50 [3] of the same molecule?
A: 1790 nM

Q: What about the TGI [3] of the same molecule?
A: 3610 nM

Q: And the GI50 [4]?
A: 1800 nM

Q: What about the TGI [4] of the same molecule?
A: 3240 nM

Q: What about the GI50 [5] of the same molecule?
A: > 100000 nM

Q: And the TGI [5]?
A: > 100000 nM

Q: And the GI50 [6]?
A: 1670 nM

Q: What about the TGI [6] of the same molecule?
A: 3200 nM

Q: And the GI50 [7]?
A: 1780 nM

Q: What about the TGI [7] of the same molecule?
A: 3500 nM

Q: What about the GI50 [8] of the same molecule?
A: 1810 nM

Q: And the TGI [8]?
A: 3410 nM

Q: What about the GI50 [9] of the same molecule?
A: 1690 nM

Q: And the TGI [9]?
A: 3360 nM

Q: What about the GI50 [10] of the same molecule?
A: 1670 nM

Q: What about the TGI [10] of the same molecule?
A: 3150 nM

Q: And the GI50 [11]?
A: 1740 nM

Q: What about the TGI [11] of the same molecule?
A: 3340 nM

Q: And the GI50 [12]?
A: 1740 nM

Q: And the TGI [12]?
A: 3280 nM

Q: What about the GI50 [13] of the same molecule?
A: 1690 nM

Q: What about the TGI [13] of the same molecule?
A: 4740 nM

Q: What about the GI50 [14] of the same molecule?
A: 2000 nM

Q: And the TGI [14]?
A: 4320 nM

Q: And the GI50 [15]?
A: 1140 nM

Q: What about the TGI [15] of the same molecule?
A: 2680 nM

Q: And the GI50 [16]?
A: 1840 nM

Q: What about the TGI [16] of the same molecule?
A: 3970 nM

Q: What about the GI50 [17] of the same molecule?
A: 1750 nM

Q: And the TGI [17]?
A: 3340 nM

Q: What about the GI50 [18] of the same molecule?
A: 1810 nM

Q: What about the TGI [18] of the same molecule?
A: 3520 nM

Q: What about the GI50 [19] of the same molecule?
A: 2010 nM

Q: What about the TGI [19] of the same molecule?
A: 3770 nM

Q: And the GI50 [20]?
A: 1650 nM

Q: And the TGI [20]?
A: 3210 nM

Q: What about the GI50 [21] of the same molecule?
A: 1830 nM

Q: What about the TGI [21] of the same molecule?
A: 3510 nM

Q: And the GI50 [22]?
A: 1620 nM

Q: What about the TGI [22] of the same molecule?
A: 3080 nM

Q: What about the GI50 [23] of the same molecule?
A: 1860 nM

Q: And the TGI [23]?
A: 3700 nM

Q: And the GI50 [24]?
A: 1650 nM

Q: And the TGI [24]?
A: 3160 nM

Q: What about the GI50 [25] of the same molecule?
A: 1790 nM

Q: And the TGI [25]?
A: 3600 nM

Q: And the GI50 [26]?
A: 1810 nM

Q: What about the TGI [26] of the same molecule?
A: 3500 nM

Q: What about the GI50 [27] of the same molecule?
A: 1890 nM

Q: What about the TGI [27] of the same molecule?
A: 3550 nM

Q: And the GI50 [28]?
A: 1720 nM

Q: And the TGI [28]?
A: 3350 nM

Q: What about the GI50 [29] of the same molecule?
A: 1790 nM

Q: And the TGI [29]?
A: 3330 nM

Q: What about the GI50 [30] of the same molecule?
A: 1760 nM

Q: And the TGI [30]?
A: 3460 nM

Q: What about the GI50 [31] of the same molecule?
A: 1800 nM

Q: What about the TGI [31] of the same molecule?
A: 3400 nM

Q: And the GI50 [32]?
A: 1860 nM

Q: What about the TGI [32] of the same molecule?
A: 3760 nM

Q: And the GI50 [33]?
A: 1530 nM

Q: What about the TGI [33] of the same molecule?
A: 3150 nM

Q: What about the GI50 [34] of the same molecule?
A: 1330 nM

Q: What about the TGI [34] of the same molecule?
A: 3860 nM

Q: And the GI50 [35]?
A: 1560 nM

Q: And the TGI [35]?
A: 2970 nM

Q: What about the GI50 [36] of the same molecule?
A: 1830 nM

Q: And the TGI [36]?
A: 3660 nM

Q: What about the GI50 [37] of the same molecule?
A: 1790 nM

Q: What about the TGI [37] of the same molecule?
A: 3320 nM

Q: What about the GI50 [38] of the same molecule?
A: 1750 nM

Q: And the TGI [38]?
A: 3300 nM

Q: And the GI50 [39]?
A: 1800 nM

Q: And the TGI [39]?
A: 3440 nM

Q: And the GI50 [40]?
A: 1800 nM

Q: What about the TGI [40] of the same molecule?
A: 3280 nM

Q: And the GI50 [41]?
A: 1810 nM

Q: And the TGI [41]?
A: 3450 nM

Q: And the GI50 [42]?
A: 1950 nM

Q: What about the TGI [42] of the same molecule?
A: 3770 nM

Q: And the GI50 [43]?
A: 1790 nM

Q: What about the TGI [43] of the same molecule?
A: 3430 nM

Q: What about the GI50 [44] of the same molecule?
A: 1780 nM

Q: And the TGI [44]?
A: 3520 nM

Q: What about the GI50 [45] of the same molecule?
A: 1490 nM

Q: What about the TGI [45] of the same molecule?
A: 3340 nM

Q: And the GI50 [46]?
A: 1780 nM

Q: What about the TGI [46] of the same molecule?
A: 3420 nM

Q: And the GI50 [47]?
A: 1840 nM

Q: What about the TGI [47] of the same molecule?
A: 3960 nM

Q: What about the GI50 [48] of the same molecule?
A: 1680 nM

Q: And the TGI [48]?
A: 3130 nM

Q: What about the GI50 [49] of the same molecule?
A: 1710 nM

Q: What about the TGI [49] of the same molecule?
A: 3340 nM

Q: And the GI50 [50]?
A: 1620 nM

Q: And the TGI [50]?
A: 3270 nM

Q: What about the GI50 [51] of the same molecule?
A: 1720 nM

Q: And the TGI [51]?
A: 3280 nM

Q: And the GI50 [52]?
A: 1550 nM

Q: What about the TGI [52] of the same molecule?
A: 2950 nM
